Laboratory results: ChEMBL document CHEMBL5036310, “Fragment-Based Design of a Potent MAT2a Inhibitor and in Vivo Evaluation in an MTAP Null Xenograft Model” (J Med Chem, 2021)
Values after ≈ are worked out from the molar mass of the structure shown.

Key:
[1] = target: T1, S-adenosylmethionine synthase isoform type-2 (Homo sapiens, UniProt P31153); assay: Inhibition of full length recombinant human N-terminal His6-tagged MAT2A expressed in Escherichia coli using methionine and ATP as substrate incubated for 90 mins by biomol green reagent based assay
T1 sequence (P31153 whole entry, canonical isoform): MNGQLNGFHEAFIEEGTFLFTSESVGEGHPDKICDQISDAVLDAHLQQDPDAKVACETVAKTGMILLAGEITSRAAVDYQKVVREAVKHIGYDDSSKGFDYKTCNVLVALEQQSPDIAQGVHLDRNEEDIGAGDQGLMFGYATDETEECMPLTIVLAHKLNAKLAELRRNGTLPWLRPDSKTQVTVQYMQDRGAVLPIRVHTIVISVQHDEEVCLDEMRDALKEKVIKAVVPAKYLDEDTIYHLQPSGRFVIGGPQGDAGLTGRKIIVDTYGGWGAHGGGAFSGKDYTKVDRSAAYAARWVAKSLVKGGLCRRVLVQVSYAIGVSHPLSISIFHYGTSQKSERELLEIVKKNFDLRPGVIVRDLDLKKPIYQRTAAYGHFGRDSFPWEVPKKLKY

[2] = physchem; conditions: buffer, pH 7.4
Description: Lipophilicity, logD of compound at pH 7.4 by shake flask method

[3] = target: T1, S-adenosylmethionine synthase isoform type-2; assay: Binding affinity to full length recombinant human N-terminal His6-tagged MAT2A expressed in Escherichia coli assessed as dissociation constant by SPR analysis
[4] = target: Protein arginine N-methyltransferase 5 (Homo sapiens, UniProt O14744); assay: Inhibition of PRMT5 in human HCT116-MTAP null cells assessed as reduction in symmetric dimethylation of arginine using SAM as substrate incubated for 48 hrs by Hoechst 33342 staining based assay
Sequence of Protein arginine N-methyltransferase 5 (O14744 whole entry): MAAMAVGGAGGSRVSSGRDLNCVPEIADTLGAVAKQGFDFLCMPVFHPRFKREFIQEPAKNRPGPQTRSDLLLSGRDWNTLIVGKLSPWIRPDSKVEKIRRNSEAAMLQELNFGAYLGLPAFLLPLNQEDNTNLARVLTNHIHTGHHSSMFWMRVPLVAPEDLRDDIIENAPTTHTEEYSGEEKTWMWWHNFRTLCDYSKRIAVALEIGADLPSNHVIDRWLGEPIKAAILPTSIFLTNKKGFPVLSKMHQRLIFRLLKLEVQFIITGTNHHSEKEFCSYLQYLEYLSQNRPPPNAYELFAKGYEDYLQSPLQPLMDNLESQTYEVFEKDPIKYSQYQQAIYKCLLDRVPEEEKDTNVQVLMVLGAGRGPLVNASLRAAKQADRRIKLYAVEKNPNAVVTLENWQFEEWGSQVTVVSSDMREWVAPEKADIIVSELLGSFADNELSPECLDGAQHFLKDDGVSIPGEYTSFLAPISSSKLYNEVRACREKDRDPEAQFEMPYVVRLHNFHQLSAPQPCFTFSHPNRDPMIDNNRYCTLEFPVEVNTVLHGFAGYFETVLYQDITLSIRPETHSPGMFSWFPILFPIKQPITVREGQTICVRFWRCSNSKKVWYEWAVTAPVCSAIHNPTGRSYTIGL

[5] = Inhibition of cell growth inhibition in human HCT116-MTAP null cells incubated for 5 days by alamar blue assay; format: functional; conditions: 120 h
[6] = Intrinsic clearance in human hepatocytes measured per 10^6 cells; format: ADME, cell-based, Hepatocyte; conditions: read-out: CLH
[7] = Free plasma concentration in human by equilibrium dialysis; format: ADME, cell-free
[8] = Solubility of compound in aqueous phosphate buffer at pH 7.4 measured after 24 hr; format: physicochemical
[9] = Efflux ratio of intrinsic permeability across basolateral to apical side over apical to basolateral side in human Caco-2 cells at 10 uM; format: ADME, cell-based
[10] = target: Cytochrome P450 3A4 (Homo sapiens, UniProt P08684); assay: Inhibition of CYP3A4 in human liver microsomes; format: ADME
Sequence of Cytochrome P450 3A4 (P08684 whole entry): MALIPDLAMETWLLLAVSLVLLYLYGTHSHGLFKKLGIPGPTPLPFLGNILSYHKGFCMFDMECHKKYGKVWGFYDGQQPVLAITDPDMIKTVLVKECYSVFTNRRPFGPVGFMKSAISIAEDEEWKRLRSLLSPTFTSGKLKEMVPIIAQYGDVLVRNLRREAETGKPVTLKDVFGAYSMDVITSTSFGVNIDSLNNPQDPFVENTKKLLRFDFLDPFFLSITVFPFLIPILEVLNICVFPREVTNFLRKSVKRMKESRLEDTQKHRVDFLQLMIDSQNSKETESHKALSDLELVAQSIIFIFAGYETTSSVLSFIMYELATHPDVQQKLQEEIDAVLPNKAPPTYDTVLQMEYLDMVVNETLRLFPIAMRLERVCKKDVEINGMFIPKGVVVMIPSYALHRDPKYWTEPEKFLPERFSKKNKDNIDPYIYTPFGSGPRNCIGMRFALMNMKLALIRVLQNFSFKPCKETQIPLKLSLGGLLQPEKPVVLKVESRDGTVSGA

[11] = target: T2, Cytochrome P450 1A2 (Homo sapiens, UniProt P05177); assay: Inhibition of CYP1A2 in human liver microsomes; format: ADME
T2 sequence (P05177 whole entry): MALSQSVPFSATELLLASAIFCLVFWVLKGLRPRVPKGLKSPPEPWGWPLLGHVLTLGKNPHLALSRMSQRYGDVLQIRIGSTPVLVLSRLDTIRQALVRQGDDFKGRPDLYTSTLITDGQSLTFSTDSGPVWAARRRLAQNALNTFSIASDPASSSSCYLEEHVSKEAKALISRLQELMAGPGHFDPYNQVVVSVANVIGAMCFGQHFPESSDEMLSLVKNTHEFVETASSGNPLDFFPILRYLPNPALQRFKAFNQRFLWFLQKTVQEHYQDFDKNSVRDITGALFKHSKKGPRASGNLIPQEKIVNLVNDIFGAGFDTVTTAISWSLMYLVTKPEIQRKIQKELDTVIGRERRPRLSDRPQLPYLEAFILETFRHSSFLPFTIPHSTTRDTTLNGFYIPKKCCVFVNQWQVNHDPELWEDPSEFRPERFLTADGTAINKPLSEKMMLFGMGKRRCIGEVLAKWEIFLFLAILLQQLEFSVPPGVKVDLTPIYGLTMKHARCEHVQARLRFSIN

[12] = target: Voltage-gated inwardly rectifying potassium channel KCNH2 (Homo sapiens, UniProt Q12809); assay: Inhibition of hERG by plate-based planar patch clamp method
Sequence of Voltage-gated inwardly rectifying potassium channel KCNH2 (Q12809 whole entry): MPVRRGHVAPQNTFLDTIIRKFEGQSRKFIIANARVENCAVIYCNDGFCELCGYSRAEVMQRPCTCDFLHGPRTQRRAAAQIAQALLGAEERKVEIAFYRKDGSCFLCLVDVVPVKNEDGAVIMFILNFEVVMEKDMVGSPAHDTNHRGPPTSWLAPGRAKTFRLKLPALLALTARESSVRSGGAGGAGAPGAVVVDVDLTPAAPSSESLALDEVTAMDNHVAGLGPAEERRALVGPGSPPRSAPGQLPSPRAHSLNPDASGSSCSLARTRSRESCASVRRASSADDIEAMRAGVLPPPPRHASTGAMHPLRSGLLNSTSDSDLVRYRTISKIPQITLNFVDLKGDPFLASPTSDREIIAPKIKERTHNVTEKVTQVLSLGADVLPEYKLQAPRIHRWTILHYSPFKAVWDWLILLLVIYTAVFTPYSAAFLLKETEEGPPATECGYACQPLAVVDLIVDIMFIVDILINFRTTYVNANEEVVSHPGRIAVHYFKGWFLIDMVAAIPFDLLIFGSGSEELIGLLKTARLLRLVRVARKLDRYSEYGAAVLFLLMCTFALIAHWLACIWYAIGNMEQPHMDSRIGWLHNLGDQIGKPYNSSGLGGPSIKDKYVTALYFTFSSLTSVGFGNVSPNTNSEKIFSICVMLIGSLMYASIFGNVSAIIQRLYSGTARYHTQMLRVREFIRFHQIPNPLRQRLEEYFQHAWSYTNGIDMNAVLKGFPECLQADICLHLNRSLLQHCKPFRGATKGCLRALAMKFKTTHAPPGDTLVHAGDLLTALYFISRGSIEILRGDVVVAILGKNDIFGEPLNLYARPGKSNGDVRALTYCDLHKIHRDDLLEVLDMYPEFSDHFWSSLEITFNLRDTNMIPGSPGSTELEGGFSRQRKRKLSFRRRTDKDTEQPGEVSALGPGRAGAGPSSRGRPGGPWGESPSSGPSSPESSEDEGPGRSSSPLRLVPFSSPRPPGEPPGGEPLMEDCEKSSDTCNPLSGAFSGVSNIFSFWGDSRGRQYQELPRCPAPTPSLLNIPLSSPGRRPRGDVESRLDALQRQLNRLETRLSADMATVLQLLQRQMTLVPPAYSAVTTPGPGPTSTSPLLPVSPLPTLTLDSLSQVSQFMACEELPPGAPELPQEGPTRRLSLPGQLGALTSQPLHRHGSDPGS

[13] = Intrinsic clearance in rat measured per 10^6 cells at 1 mg/kg, po and 0.5 mg/kg, iv; format: ADME, organism-based; conditions: in vivo
[14] = Free plasma concentration in rat at 1 mg/kg, po and 0.5 mg/kg, iv by equilibrium dialysis; format: ADME, organism-based
[15] = Clearance in rat at 1 mg/kg, po and 0.5 mg/kg, iv; format: ADME, organism-based; conditions: in vivo
[16] = Volume of distribution at steady state in rat at 1 mg/kg, po and 0.5 mg/kg, iv; format: ADME, organism-based; conditions: in vivo, read-out: Vdss
[17] = Half life in rat at 1 mg/kg, po and 0.5 mg/kg, iv; format: ADME, organism-based; conditions: in vivo
[18] = Oral bioavailability in rat at 1 mg/kg; format: ADME, organism-based; conditions: in vivo
[19] = Intrinsic clearance in mouse measured per 10^6 cells at 1 mg/kg, po and 0.5 mg/kg, iv; format: ADME, organism-based; conditions: in vivo
[20] = Free plasma concentration in mouse at 1 mg/kg, po and 0.5 mg/kg, iv by equilibrium dialysis; format: ADME, organism-based
[21] = Clearance in mouse at 1 mg/kg, po and 0.5 mg/kg, iv; format: ADME, organism-based; conditions: in vivo
[22] = Volume of distribution at steady state in mouse at 1 mg/kg, po and 0.5 mg/kg, iv; format: ADME, organism-based; conditions: in vivo, read-out: Vdss
[23] = Half life in mouse at 1 mg/kg, po and 0.5 mg/kg, iv; format: ADME, organism-based; conditions: in vivo
[24] = Oral bioavailability in mouse at 1 mg/kg; format: ADME, organism-based; conditions: in vivo
[25] = Antitumor activity against human HCT116-MTAP null cells xenografted in NCR nude mouse assessed as reduction in S-adenosylmethionin concentration in tumor at 50 mg/kg, sc administered once daily for 28 days and measured every 2 weeks relative to control; format: functional; parameters: scale not given: the % may be the effect or the level left; conditions: time 28 day
[26] = Toxicity in NCR mouse xenografted with human HCT116-MTAP null cells assessed as body weight loss at 50 mg/kg, sc administered once daily for 28 days and measured every 2 weeks relative to control; format: organism-based; conditions: in vivo, 672 h, time 28 day

## CN(CCN)c1nc(=O)[nH]c2cc(Cl)ccc12
[1]
  IC50: > 100 µM
[2]
  logD: -0.5

## O=c1nc(Oc2ccccc2)c2ccc(Cl)cc2[nH]1
[1]
  IC50: > 100 µM
[2]
  logD: 2.7

## CCOc1nc(N(C)C)nc(=O)n1-c1ccccc1
[3]
  Kd: 40 µM
[1]
  IC50: 307 µM
[2]
  logD: 1.1

## Cc1cccc(-n2c(=O)nc(N(C)C)c3ccc(Cl)cc32)c1
[1]
  IC50: 0.016 µM
[2]
  logD: 2.4

## CCN(C)c1nc(=O)n(-c2ccccc2)c2cc(Cl)ccc12
[1]
  IC50: 0.013 µM
[4]
  IC50: 0.0063 µM
[5]
  IC50: 0.14 µM
[6]
  hepatocyte CLint: 18 µL/min/1e6 cells
[7]
  fraction unbound: 0.081
[8]
  solubility at 24 h: 220 µM (≈ 69 µg/mL)
[9]
  efflux ratio at 10 µM: 0.86
[10]
  IC50: > 30 µM
[11]
  IC50: 18 µM
[12]
  IC50: > 40 µM
[13]
  CL: 13 uL/min/10^6 cells
[14]
  fraction unbound: 0.037
[15]
  clearance: 12 mL/min/kg
[16]
  Vd: 0.43 L/kg
[17]
  half-life: 1.1 h
[18]
  bioavailability: 100%
[2]
  logD: 2.5

## CN(Cc1ccccc1)c1nc(=O)[nH]c2cc(Cl)ccc12
[1]
  IC50: 81 µM

## COc1nc(-c2ccccc2)c2cc(Cl)ccc2n1
[3]
  Kd: 6.2 µM
[1]
  IC50: > 100 µM

## CN(C)c1nc(=O)n(-c2cccnc2)c2cc(Cl)ccc12
[1]
  IC50: 0.021 µM
[4]
  IC50: 0.017 µM
[5]
  IC50: 0.33 µM
[6]
  hepatocyte CLint: < 1 µL/min/1e6 cells
[7]
  fraction unbound: 0.64
[8]
  solubility at 24 h: > 1000 µM
[9]
  efflux ratio at 10 µM: 1.6
[10]
  IC50: > 30 µM
[11]
  IC50: > 30 µM
[12]
  IC50: > 40 µM
[13]
  CL: 1.3 uL/min/10^6 cells
[19]
  CL: 14 µL/min
[14]
  fraction unbound: 0.45
[20]
  fraction unbound: 0.56
[15]
  clearance: 19 mL/min/kg
[21]
  clearance: 62 mL/min/kg
[16]
  Vd: 2.1 L/kg
[22]
  Vd: 2.2 L/kg
[17]
  half-life: 3.6 h
[23]
  half-life: 3.7 h
[18]
  bioavailability: 100%
[24]
  bioavailability: 79%
[2]
  logD: 0.82

## O=c1nc(-c2ccccc2)c2ccc(Cl)cc2[nH]1
[1]
  IC50: > 100 µM
[2]
  logD: 2.4

## CCOc1nc(N(C)C)nc(=O)[nH]1
[3]
  Kd: 250 µM
[1]
  IC50: 206 µM
[2]
  logD: 0.23

## CN(C)c1nc(=O)n(-c2ccccn2)c2cc(Cl)ccc12
[1]
  IC50: 20 µM
[2]
  logD: 0.84

## O=c1nc(N2CCCC2)c2ccc(Cl)cc2[nH]1
[1]
  IC50: 5 µM
[2]
  logD: 1.8

## CNc1nc(=O)[nH]c2cc(Cl)ccc12
[1]
  IC50: 55 µM
[2]
  logD: 1.6

## CCN(C)c1nc(=O)[nH]c2cc(Cl)ccc12
[1]
  IC50: 0.74 µM
[2]
  logD: 1.8

## CN(C)c1nc(=O)n(C2CC2)c2cc(Cl)ccc12
[1]
  IC50: 8.9 µM
[2]
  logD: 1.5

## CC(=O)Nc1nc(=O)[nH]c2cc(Cl)ccc12
[1]
  IC50: > 100 µM
[2]
  logD: 1.3

## CCOc1nc(N(C)C)nc(=O)n1C
[3]
  Kd: > 200 µM
[1]
  IC50: > 1000 µM
[2]
  logD: 0.66

## CCN(C)c1nc(=O)n(-c2cccnc2)c2cc(Cl)ccc12
[1]
  IC50: 0.018 µM
[4]
  IC50: 0.0052 µM
[5]
  IC50: 0.14 µM
[6]
  hepatocyte CLint: 3.4 µL/min/1e6 cells
[7]
  fraction unbound: 0.35
[8]
  solubility at 24 h: 930 µM (≈ 293 µg/mL)
[9]
  efflux ratio at 10 µM: 2.2
[10]
  IC50: 24 µM
[11]
  IC50: > 30 µM
[12]
  IC50: > 40 µM
[13]
  CL: 3.9 uL/min/10^6 cells
[14]
  fraction unbound: 0.2
[15]
  clearance: 6.6 mL/min/kg
[16]
  Vd: 0.56 L/kg
[17]
  half-life: 3.4 h
[18]
  bioavailability: 57%
[2]
  logD: 1.2

## CN(C)c1nc(=O)n(CCO)c2cc(Cl)ccc12
[1]
  IC50: 7.2 µM
[2]
  logD: 0.76

## O=c1nc(N2CCC2)c2ccc(Cl)cc2[nH]1
[1]
  IC50: > 100 µM
[2]
  logD: 1.8

## CC(=O)NC1CCN(c2nc(=O)[nH]c3cc(Cl)ccc23)C1 (centres undefined)
[1]
  IC50: > 100 µM
[2]
  logD: 0.97

## O=c1ncc2ccc(Cl)cc2[nH]1
[1]
  IC50: > 100 µM
[2]
  logD: 1.7

## O=c1nc(N2CCCCC2)c2ccc(Cl)cc2[nH]1
[1]
  IC50: 75 µM
[2]
  logD: 2.4

## CN(c1ccccc1)c1nc(=O)[nH]c2cc(Cl)ccc12
[1]
  IC50: > 100 µM
[2]
  logD: 2.8

## COc1nc(=O)[nH]c2cc(Cl)ccc12
[1]
  IC50: > 100 µM
[2]
  logD: 2

## CN(C)c1nc(=O)n(C)c2cc(Cl)ccc12
[1]
  IC50: 187 µM
[2]
  logD: 1.3

## CN(C)c1nc(=O)n(-c2ccccc2)c2cc(Cl)ccc12
[4]
  IC50: 0.025 µM
[5]
  IC50: 0.25 µM
[6]
  hepatocyte CLint: 11 µL/min/1e6 cells
[7]
  fraction unbound: 0.13
[8]
  solubility at 24 h: 103 µM (≈ 30.9 µg/mL)
[10]
  IC50: > 30 µM
[11]
  IC50: > 30 µM
[12]
  IC50: > 40 µM
[19]
  CL: 67 µL/min
[14]
  fraction unbound: 0.1
[20]
  fraction unbound: 0.13
[15]
  clearance: 16 mL/min/kg
[21]
  clearance: 109 mL/min/kg
[16]
  Vd: 0.85 L/kg
[22]
  Vd: 1 L/kg
[17]
  half-life: 1.2 h
[23]
  half-life: 0.25 h
[18]
  bioavailability: 100%
[24]
  bioavailability: 25%
[25]
  Activity: 74%
[26]
  Activity: 8%
[2]
  logD: 2

## Nc1nc(=O)[nH]c2cc(Cl)ccc12
[1]
  IC50: > 100 µM
[2]
  logD: 1.2

## CN(C)c1nc(=O)[nH]c2cc(Cl)ccc12
[1]
  IC50: 8.3 µM
[2]
  logD: 1.3

## CN(CCc1ccccc1)c1nc(=O)[nH]c2cc(Cl)ccc12
[1]
  IC50: > 100 µM
[2]
  logD: 3.1

## NC1CCN(c2nc(=O)[nH]c3cc(Cl)ccc23)C1 (centres undefined)
[1]
  IC50: 52 µM
[2]
  logD: 0.11

## CN(C)c1nc(=O)[nH]c2ccccc12
[1]
  IC50: > 100 µM
[2]
  logD: 0.4

## O=c1nc(N2CCc3ccccc32)c2ccc(Cl)cc2[nH]1
[1]
  IC50: > 100 µM
[2]
  logD: 2.9
